Measurements as given in patent US12077503B2, “Substituted cyclic amides and their use as herbicides” (FMC CORPORATION, priority 2015, dated 2024).

Tests used:
Assay type in all cases: in vivo
Kochia (Kochia scoparia) [1] = experiment: Test A preemergence; conditions: Bassia scoparia, pre-emergence, 240 h, 0 to 100 scale where 0 is no effect and 100 is complete control, read-out: Kochia plant response rating
How it was run: (§1)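 Ratings of 0 (no effect) to 100 (complete control) come from visual comparison with untreated controls roughly 10 d after treatment. Test chemicals, formulated in a non-phytotoxic solvent mixture with surfactant, were applied either as a preemergence directed soil spray on seeded soil or postemergence to one- to two-leaf plants 2 to 10 cm tall.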

[2] = test system: barnyardgrass (Echinochloa crus-galli); experiment: Test A preemergence; conditions: Echinochloa crus-galli, pre-emergence, 240 h, 0 to 100 scale where 0 is no effect and 100 is complete control, read-out: Barnyardgrass plant response rating
How it was run: as §1

[3] = test system: giant foxtail (Setaria faberii); experiment: Test A preemergence; conditions: Setaria faberi, pre-emergence, 240 h, 0 to 100 scale where 0 is no effect and 100 is complete control, read-out: Foxtail, Giant plant response rating
How it was run: as §1

[4] = test system: pigweed (Amaranthus retroflexus); experiment: Test A preemergence; conditions: Amaranthus retroflexus, pre-emergence, 240 h, 0 to 100 scale where 0 is no effect and 100 is complete control, read-out: Pigweed plant response rating
[5] = test system: ragweed (common ragweed, Ambrosia elatior); experiment: Test A preemergence; conditions: Ambrosia artemisiifolia, pre-emergence, 240 h, 0 to 100 scale where 0 is no effect and 100 is complete control, read-out: Ragweed plant response rating
How it was run: as §1

[6] = test system: ryegrass, Italian (Italian ryegrass, Lolium multiflorum); experiment: Test A preemergence; conditions: Lolium multiflorum, pre-emergence, 240 h, 0 to 100 scale where 0 is no effect and 100 is complete control, read-out: Ryegrass, Italian plant response rating
How it was run: as §1

[7] = test system: Galium (catchweed bedstraw, Galium aparine); experiment: Test A postemergence; conditions: Galium, post-emergence, 240 h
How it was run: as §1

Kochia (Kochia scoparia) [8] = experiment: Test A postemergence; conditions: Bassia scoparia, post-emergence, 240 h
How it was run: as §1

[9] = test system: barnyardgrass (Echinochloa crus-galli); experiment: Test A postemergence; conditions: Echinochloa crus-galli, post-emergence, 240 h
How it was run: as §1

[10] = test system: blackgrass (Alopecurus myosuroides); experiment: Test A postemergence; conditions: Alopecurus myosuroides, post-emergence, 240 h
How it was run: as §1

corn (Zea mays) = experiment: Test A postemergence; conditions: Zea mays, post-emergence, 240 h
How it was run: as §1

[11] = test system: giant foxtail (Setaria faberii); experiment: Test A postemergence; conditions: Setaria faberi, post-emergence, 240 h
How it was run: as §1

[12] = test system: pigweed (Amaranthus retroflexus); experiment: Test A postemergence; conditions: Amaranthus retroflexus, post-emergence, 240 h
How it was run: as §1

[13] = test system: ragweed (common ragweed, Ambrosia elatior); experiment: Test A postemergence; conditions: Ambrosia artemisiifolia, post-emergence, 240 h
How it was run: as §1

[14] = test system: ryegrass, Italian (Italian ryegrass, Lolium multiflorum); experiment: Test A postemergence; conditions: Lolium multiflorum, post-emergence, 240 h
How it was run: as §1

[15] = test system: wheat (Triticum aestivum); experiment: Test A postemergence; conditions: Triticum aestivum, post-emergence, 240 h
How it was run: as §1

[16] = test system: barnyardgrass (Echinochloa crus-galli); experiment: Test B flooded paddy test; conditions: Echinochloa crus-galli, 250 g ai/ha, Flood; 0 to 100 scale where 0 is no effect and 100 is complete control; read-out: Barnyardgrass plant response rating
How it was run: (§2)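 Compound goes directly into floodwater once pots are flooded 3 cm above soil, targeting plants at two leaves; the water depth is then held for the test duration. Plants sit 13–15 d in a greenhouse and are rated visually, 100 denoting complete control.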

[17] = test system: ducksalad (Heteranthera limosa); experiment: Test B flooded paddy test; conditions: Heteranthera limosa, 250 g ai/ha, Flood; 0 to 100 scale where 0 is no effect and 100 is complete control; read-out: Ducksalad plant response rating
How it was run: as §2

rice (Oryra sativa) = experiment: Test B flooded paddy test; conditions: Oryza sativa, 250 g ai/ha, Flood; 0 to 100 scale where 0 is no effect and 100 is complete control; read-out: Rice plant response rating
How it was run: as §2

[18] = test system: sedge, umbrella (small-flower umbrella sedge, Cyperus difformis); experiment: Test B flooded paddy test; conditions: Cyperus difformis, 250 g ai/ha, Flood; 0 to 100 scale where 0 is no effect and 100 is complete control; read-out: Sedge, Umbrella plant response rating
How it was run: as §2

[19] = 125 g ai/ha, preemergence, approx. 10 d

For `O=C1NC[C@H](c2ccc(C(F)(F)F)cn2)[C@H]1C(=O)Nc1cccc(F)c1F` [Compound 1104], which pest or weed control at 31 g/ha (Kochia (Kochia scoparia) [1]; 31 g ai/ha, Preemergence) is on record?
Its pest or weed control at 31 g/ha is 0%.

What about the pest or weed control at 125 g/ha (Kochia (Kochia scoparia) [1]; [19]) of the same compound?
The pest or weed control at 125 g/ha was 0%.

What about the pest or weed control at 31 g/ha ([2]; 31 g ai/ha, Preemergence) of the same compound?
Its pest or weed control at 31 g/ha is 0%.

What about the pest or weed control at 125 g/ha [2, 19] of the same compound?
The pest or weed control at 125 g/ha was 50%.

And the pest or weed control at 31 g/ha ([3]; 31 g ai/ha, Preemergence)?
Its pest or weed control at 31 g/ha is 0%.

And the pest or weed control at 125 g/ha [3, 19]?
The pest or weed control at 125 g/ha was 70%.

And the pest or weed control at 31 g/ha ([4]; 31 g ai/ha, Preemergence)?
Its pest or weed control at 31 g/ha is 0%.

What about the pest or weed control at 125 g/ha [4, 19] of the same compound?
The pest or weed control at 125 g/ha was 0%.

What about the pest or weed control at 31 g/ha ([5]; 31 g ai/ha, Preemergence) of the same compound?
Its pest or weed control at 31 g/ha is 0%.

What about the pest or weed control at 125 g/ha [5, 19] of the same compound?
Its pest or weed control at 125 g/ha is 0%.

And the pest or weed control at 31 g/ha ([6]; 31 g ai/ha, Preemergence)?
Its pest or weed control at 31 g/ha is 0%.

What about the pest or weed control at 125 g/ha [6, 19] of the same compound?
Its pest or weed control at 125 g/ha is 0%.

What about the pest or weed control at 125 g/ha ([7]; 125 g ai/ha, postemergence, visual injury on 0 to 100 scale (0 no effect, 100 complete control), approx. 10 d, read-out: Galium plant response rating) of the same compound?
The pest or weed control at 125 g/ha was 0%.

And the pest or weed control at 31 g/ha ([7]; Postemergence, 31 g ai/ha, visual injury after approx. 10 d, 0 to 100 scale, 0 no effect, 100 complete control, read-out: Plant response rating, Galium)?
Its pest or weed control at 31 g/ha is 0%.

And the pest or weed control at 125 g/ha (Kochia (Kochia scoparia) [8]; 125 g ai/ha, postemergence, visual injury on 0 to 100 scale (0 no effect, 100 complete control), approx. 10 d, read-out: Kochia plant response rating)?
The pest or weed control at 125 g/ha was 0%.

What about the pest or weed control at 31 g/ha (Kochia (Kochia scoparia) [8]; Postemergence, 31 g ai/ha, visual injury after approx. 10 d, 0 to 100 scale, 0 no effect, 100 complete control, read-out: Plant response rating, Kochia) of the same compound?
The pest or weed control at 31 g/ha was 0%.

What about the pest or weed control at 125 g/ha ([9]; 125 g ai/ha, postemergence, visual injury on 0 to 100 scale (0 no effect, 100 complete control), approx. 10 d, read-out: Barnyardgrass plant response rating) of the same compound?
The pest or weed control at 125 g/ha was 30%.

And the pest or weed control at 31 g/ha ([9]; Postemergence, 31 g ai/ha, visual injury after approx. 10 d, 0 to 100 scale, 0 no effect, 100 complete control, read-out: Plant response rating, Barnyardgrass)?
The pest or weed control at 31 g/ha was 0%.

And the pest or weed control at 125 g/ha ([10]; 125 g ai/ha, postemergence, visual injury on 0 to 100 scale (0 no effect, 100 complete control), approx. 10 d, read-out: Blackgrass plant response rating)?
The pest or weed control at 125 g/ha was 0%.

What about the pest or weed control at 31 g/ha ([10]; Postemergence, 31 g ai/ha, visual injury after approx. 10 d, 0 to 100 scale, 0 no effect, 100 complete control, read-out: Plant response rating, Blackgrass) of the same compound?
The pest or weed control at 31 g/ha was 0%.

And the plant injury at 125 g/ha (corn (Zea mays); 125 g ai/ha, postemergence, visual injury on 0 to 100 scale (0 no effect, 100 complete control), approx. 10 d, read-out: Corn plant response rating)?
The plant injury at 125 g/ha was 0%.

And the Corn plant response rating (crop injury, 0 = no effect, 100 = complete kill) at 31 g/ha (corn (Zea mays); Postemergence, 31 g ai/ha, visual injury after approx. 10 d, 0 to 100 scale, 0 no effect, 100 complete control)?
The Corn plant response rating (crop injury, 0 = no effect, 100 = complete kill) at 31 g/ha was 0%.

What about the pest or weed control at 125 g/ha ([11]; 125 g ai/ha, postemergence, visual injury on 0 to 100 scale (0 no effect, 100 complete control), approx. 10 d, read-out: Foxtail, Giant plant response rating) of the same compound?
Its pest or weed control at 125 g/ha is 0%.

What about the pest or weed control at 31 g/ha ([11]; Postemergence, 31 g ai/ha, visual injury after approx. 10 d, 0 to 100 scale, 0 no effect, 100 complete control, read-out: Plant response rating, Foxtail, Giant) of the same compound?
Its pest or weed control at 31 g/ha is 0%.

And the pest or weed control at 125 g/ha ([12]; 125 g ai/ha, postemergence, visual injury on 0 to 100 scale (0 no effect, 100 complete control), approx. 10 d, read-out: Pigweed plant response rating)?
Its pest or weed control at 125 g/ha is 0%.

And the pest or weed control at 31 g/ha ([12]; Postemergence, 31 g ai/ha, visual injury after approx. 10 d, 0 to 100 scale, 0 no effect, 100 complete control, read-out: Plant response rating, Pigweed)?
Its pest or weed control at 31 g/ha is 0%.

What about the pest or weed control at 125 g/ha ([13]; 125 g ai/ha, postemergence, visual injury on 0 to 100 scale (0 no effect, 100 complete control), approx. 10 d, read-out: Ragweed plant response rating) of the same compound?
Its pest or weed control at 125 g/ha is 0%.

And the pest or weed control at 31 g/ha ([13]; Postemergence, 31 g ai/ha, visual injury after approx. 10 d, 0 to 100 scale, 0 no effect, 100 complete control, read-out: Plant response rating, Ragweed)?
Its pest or weed control at 31 g/ha is 0%.

What about the pest or weed control at 125 g/ha ([14]; 125 g ai/ha, postemergence, visual injury on 0 to 100 scale (0 no effect, 100 complete control), approx. 10 d, read-out: Ryegrass, Italian plant response rating) of the same compound?
Its pest or weed control at 125 g/ha is 0%.

And the pest or weed control at 31 g/ha ([14]; Postemergence, 31 g ai/ha, visual injury after approx. 10 d, 0 to 100 scale, 0 no effect, 100 complete control, read-out: Plant response rating, Ryegrass, Italian)?
The pest or weed control at 31 g/ha was 0%.

What about the plant injury at 125 g/ha ([15]; 125 g ai/ha, postemergence, visual injury on 0 to 100 scale (0 no effect, 100 complete control), approx. 10 d, read-out: Wheat plant response rating) of the same compound?
Its plant injury at 125 g/ha is 0%.

And the plant injury at 31 g/ha ([15]; Postemergence, 31 g ai/ha, visual injury after approx. 10 d, 0 to 100 scale, 0 no effect, 100 complete control, read-out: Plant response rating, Wheat)?
Its plant injury at 31 g/ha is 0%.

What about the pest or weed control at 250 g/ha [16] of the same compound?
The pest or weed control at 250 g/ha was 40%.

And the pest or weed control at 250 g/ha [17]?
The pest or weed control at 250 g/ha was 100%.

What about the pest or weed control at 250 g/ha (rice (Oryra sativa)) of the same compound?
The pest or weed control at 250 g/ha was 20%.

What about the pest or weed control at 250 g/ha [18] of the same compound?
Its pest or weed control at 250 g/ha is 0%.
